System: Normal Human Dermal Fibroblasts
Experiment: Mitochondrial mass (MitoTracker Green FM) in Normal Human Dermal Fibroblasts
Assay type: cell-based
Conditions: 20 mM, insulin 100 nM
Description: Normal Human Dermal Fibroblasts were isolated from skin biopsy coming from a breast reduction surgery on a person. 10′000 cells per well were seeded in a black 96-wells plate with DMEM (Dulbecco's Modified Eagle's Medium, Gibco) supplemented with 10% FCS (Fetal Calf Serum, Biowest) and 1% antibiotics (Sigma Aldrich) and were cultured for 72 hours in an incubator at 37° C. in a humid atmosphere containing 5% CO2. Cells were then rinsed two times with PBS (Phosphate Buffer Saline) before being incubated with FCS-free DMEM medium overnight in the same incubator. On the next day, the cells were treated with (i) mannose at 20 mM, (ii) mannose-6-phosphate at 20 mM or (iii) the above-mentioned Mannose-6-Phosphate complex at 20 mM (n=3) in the presence of insulin (100 nM). After 1 hour and 48 hours of treatment, MitoTracker™ Green FM (ThermoFisher) was added directly in each well for a final concentration of 200 nM and the plate was incubated in the dark in the incubator for 15 minutes. Cells were then rinsed off two times with PBS and each well was filled with 200 μl PBS. Fluorescence intensity of MitoTracker™ Green FM was measured with a microplate reader (Excitation wavelength: 488 nm/Emission wavelength: 525 nm). In this study, the mitochondrial mass in cells was determined using the fluorescence intensity emitted by MitoTracker™ Green FM.

O=C[C@@H](O)[C@@H](O)[C@H](O)[C@H](O)COP(=O)(O)O [mannose-6-phosphate]
decrease of MitoTracker Green FM specific signal (mitochondrial mass) (1 hour treatment): −53%
decrease of MitoTracker Green FM specific signal (mitochondrial mass) (48 hours of treatment): −60%
